pIC50: −log10 of the molar value. *1 amine or outer side, *2 acyl side, *3 side chain or, on linkers, in order; H or OH if unused. Where a SMILES comes first, the peptide text is derived from it. Bridges are numbered along the chain shown (N, C = ends). [ ]: non-standard residue; d: D form. The star is where a group is joined. ξ: configuration not given here. Phe(3-CF3) = N[C@@H](Cc1cccc(C(F)(F)F)c1)C(=O)O; Phe(4-COOH) = N[C@@H](Cc1ccc(C(=O)O)cc1)C(=O)O; Bip = N[C@@H](Cc1ccc(-c2ccccc2)cc1)C(=O)O; Phe(3-Me) = Cc1cccc(C[C@H](N)C(=O)O)c1; γGlu = O=C(O)[C@H](CCC(=O)[*:2])N[*:1]; Phe(2-F) = N[C@@H](Cc1ccccc1F)C(=O)O; Val(3-OH) = CC(C)(O)[C@H](N)C(=O)O; aIle = CC[C@@H](C)[C@H](N)C(=O)O; 4Pal = N[C@@H](Cc1ccncc1)C(=O)O; Cha = N[C@@H](CC1CCCCC1)C(=O)O; Cit = NC(=O)NCCC[C@H](N)C(=O)O; Ile(3ξ) = CCC(C)[C@H](N)C(=O)O; Thr(3ξ) = CC(O)[C@H](N)C(=O)O; hSer = N[C@@H](CCO)C(=O)O; Carboxymethyl = O=C(O)C*; NMeA = CN[C@@H](C)C(=O)O; Orn = NCCC[C@H](N)C(=O)O; Aun = NCCCCCCCCCCC(=O)O; Dab = NCC[C@H](N)C(=O)O; Dap = NC[C@H](N)C(=O)O; AEEA = NCCOCCOCC(=O)O
Biological target: T1, PD-1/PD-L1 interaction (PE-labeled human PD-L1-Ig binding to Jurkat cell line over-expressing human PD-1) (Homo sapiens, UniProt Q15116)
T1 construct: expressed in transfected cells; host or cells: Jurkat
Experiment: Jurkat-PD-1 Cell Binding High-Content Screening Assay (CBA)
Conditions: Jurkat-hPD-1 cells, PE-labeled PD-L1-Ig 20 nM final; read-out: Jurkat HPD1 PDL1 IC50
Summary of the method: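 Binding of 20 nM (final) PE-tagged PD-L1-Ig to compound-pretreated Jurkat-hPD-1 cells was measured by high-content imaging after 1 h. Pretreatment ran 2 h at 37 °C in DMEM with 10% fetal calf serum.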

T1 sequence (Q15116 25-288): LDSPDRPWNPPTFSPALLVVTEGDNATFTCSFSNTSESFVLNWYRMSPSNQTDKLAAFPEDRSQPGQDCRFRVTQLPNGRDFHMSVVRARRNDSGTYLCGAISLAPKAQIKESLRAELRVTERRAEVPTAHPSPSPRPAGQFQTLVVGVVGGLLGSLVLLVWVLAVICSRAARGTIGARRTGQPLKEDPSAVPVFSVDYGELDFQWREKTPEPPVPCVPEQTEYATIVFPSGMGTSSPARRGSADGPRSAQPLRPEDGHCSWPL

| SMILES | pIC50 |
| --- | --- |
| CC(=O)NCCCC[C@@H]1NC(=O)[C@H](Cc2ccc(-c3ccccc3)cc2)NC(=O)[C@H](C(C)C)NC(=O)[C@H](Cc2cccc(C)c2)NC(=O)[C@H](CC(=O)O)NC(=O)[C@H](Cc2ccc(OCC(=O)O)cc2)NC(=O)[C@H](Cc2ccc(OCC(=O)O)cc2)NC(=O)CSC[C@@H](C(=O)N[C@@H](CCN)C(=O)NCCCCCCCCCCC(=O)O)NC(=O)[C@H](CO)NC(=O)[C@H](C(C)O)NC(=O)[C@H](CC2CCCCC2)NC(=O)[C@H](CCN)NC(=O)[C@@H](CC(C)C)NC(=O)[C@H](C)N(C)C1=O (stereo partly drawn) [Example 2371] ({CH2CO}-Y(Carboxymethyl)Y(Carboxymethyl)D[Phe(3-Me)]V[Bip]K(Ac)[NMeA][dL][Dab][Cha][Thr(3ξ)]SC[Dab][Aun]-OH; thioether N-14) | 7.57 |
| CC(C)C[C@@H]1NC(=O)[C@H](Cc2c[nH]c3ccccc23)NC(=O)[C@H](CC(=O)O)NC(=O)[C@H](Cc2ccc(C(=O)O)cc2)NC(=O)[C@H](Cc2ccc(OCC(=O)O)cc2)NC(=O)CSC[C@@H](C(=O)N[C@@H](CCCNC(=N)N)C(=O)NCCCCCCCCCCC(=O)O)NC(=O)[C@H](CCCNC(N)=O)NC(=O)[C@H](C(C)C)NC(=O)[C@H](CC2CCCCC2)NC(=O)[C@H](CCN)NC(=O)[C@@H](CC(C)C)NC(=O)[C@H](C)N(C)C(=O)[C@H](C(C)C)NC(=O)[C@H](Cc2ccc(-c3ccccc3)cc2)NC1=O [Example 1100] ({CH2CO}-Y(Carboxymethyl)[Phe(4-COOH)]DWL[Bip]V[NMeA][dL][Dab][Cha]V[Cit]CR[Aun]-OH; thioether N-14) | 7.70 |
| CCC(C)[C@@H]1NC(=O)[C@H](Cc2ccc(-c3ccccc3)cc2)NC(=O)[C@H](C(C)C)NC(=O)[C@H](Cc2c[nH]c3ccccc23)NC(=O)[C@H](CC(=O)O)NC(=O)[C@H](Cc2ccc(OCC(=O)O)cc2)NC(=O)[C@H](C(C)O)NC(=O)CSC[C@@H](C(=O)N[C@H](CC(N)=O)C(=O)NCCOCCOCC(=O)N[C@@H](CCC(=O)N[C@@H](CCCN)C(=O)NCCCCCCCCCCC(=O)O)C(=O)O)NC(=O)[C@H](CO)NC(=O)[C@H](C(C)C)NC(=O)[C@H](CC(C)C)NC(=O)[C@H](CCN)NC(=O)[C@@H](CC(C)C)NC(=O)[C@H](C)N(C)C1=O (stereo partly drawn) [Example 2051] ({CH2CO}-[Thr(3ξ)]Y(Carboxymethyl)DWV[Bip][Ile(3ξ)][NMeA][dL][Dab]LVSC[dN][AEEA][γGlu][Orn][Aun]-OH; thioether N-14) | 6.96 |
| Cc1cccc(C[C@@H]2NC(=O)[C@H](CC(=O)O)NC(=O)[C@H](Cc3ccc(OCC(=O)O)cc3)NC(=O)[C@H](CN)NC(=O)CSC[C@@H](C(=O)N[C@@H](CCN)C(=O)NCCCCCCCCCCC(=O)O)NC(=O)[C@H]([C@@H](C)O)NC(=O)[C@H](C(C)C)NC(=O)[C@H](CC3CCCCC3)NC(=O)[C@H](CCN)NC(=O)[C@@H](CC(C)C)NC(=O)[C@H](C)N(C)C(=O)[C@H](Cc3ccc(OCC(=O)O)cc3)NC(=O)[C@H](Cc3ccc(-c4ccccc4)cc3)NC(=O)[C@H](C(C)C)NC2=O)c1 [Example 1260] ({CH2CO}-[Dap]Y(Carboxymethyl)D[Phe(3-Me)]V[Bip]Y(Carboxymethyl)[NMeA][dL][Dab][Cha]VTC[Dab][Aun]-OH; thioether N-14) | 7.98 |
| CCC(C)[C@@H]1NC(=O)[C@H](Cc2ccc(-c3ccccc3)cc2)NC(=O)[C@H](C(C)C)NC(=O)[C@H](Cc2cccc(C)c2)NC(=O)[C@H](CC(=O)O)NC(=O)[C@H](Cc2ccc(OCC(=O)O)cc2)NC(=O)[C@H](C(C)O)NC(=O)CSC[C@@H](C(=O)NCCOCCOCC(=O)NCCCCCCCCCCC(=O)O)NC(=O)[C@H](C(C)O)NC(=O)[C@H](C(C)C)NC(=O)[C@H](CC2CCCCC2)NC(=O)[C@H](CCN)NC(=O)[C@@H](CC(C)C)NC(=O)[C@H](C)N(C)C1=O (stereo partly drawn) [Example 2328] ({CH2CO}-[Thr(3ξ)]Y(Carboxymethyl)D[Phe(3-Me)]V[Bip][Ile(3ξ)][NMeA][dL][Dab][Cha]V[Thr(3ξ)]C[AEEA][Aun]-OH; thioether N-14) | 7.71 |
| Cc1cccc(C[C@@H]2NC(=O)[C@H](CC(=O)O)NC(=O)[C@H](Cc3ccc(C(=O)O)cc3)NC(=O)[C@H](Cc3ccc(OCC(=O)O)cc3)NC(=O)CSC[C@@H](C(=O)NCCCCCCCCCCC(=O)O)NC(=O)[C@H](CCC(=O)O)NC(=O)[C@H](C(C)C)NC(=O)[C@H](CC3CCCCC3)NC(=O)[C@H](CCN)NC(=O)[C@@H](CC(C)C)NC(=O)[C@H](C)N(C)C(=O)[C@H](Cc3ccc(O)cc3)NC(=O)[C@H](Cc3ccc(-c4ccccc4)cc3)NC(=O)[C@H](CC(C)C)NC2=O)c1 [Example 2254] ({CH2CO}-Y(Carboxymethyl)[Phe(4-COOH)]D[Phe(3-Me)]L[Bip]Y[NMeA][dL][Dab][Cha]VEC[Aun]-OH; thioether N-14) | 6.74 |
| CC[C@@H](C)[C@@H]1NC(=O)[C@H](Cc2ccc(-c3ccccc3)cc2)NC(=O)[C@H](C(C)C)NC(=O)[C@H](Cc2c[nH]c3ccccc23)NC(=O)[C@H](CC(=O)O)NC(=O)[C@H](Cc2ccc(OCC(=O)O)cc2)NC(=O)[C@H](Cc2ccncc2)NC(=O)CSC[C@@H](C(=O)N[C@H](CC(N)=O)C(=O)NCCOCCOCC(=O)N[C@@H](CCC(=O)NCCOCCOCC(=O)N[C@@H](CCC(=O)NCCOCCOCC(=O)N[C@@H](CCCN)C(=O)NCCCCCCCCCCC(=O)O)C(=O)O)C(=O)O)NC(=O)[C@H](CO)NC(=O)[C@H](C(C)C)NC(=O)[C@H](CC2CCCCC2)NC(=O)[C@H](CCN)NC(=O)[C@@H](CC(C)C)NC(=O)[C@H](C)N(C)C1=O [Example 2015] ({CH2CO}-[4Pal]Y(Carboxymethyl)DWV[Bip][aIle][NMeA][dL][Dab][Cha]VSC[dN][AEEA][γGlu][AEEA][γGlu][AEEA][Orn][Aun]-OH; thioether N-14) | 8.03 |
| CC(C)C[C@@H]1NC(=O)[C@H](Cc2c[nH]c3ccccc23)NC(=O)[C@H](CC(=O)O)NC(=O)[C@H](Cc2ccc(C(=O)O)cc2)NC(=O)[C@H](Cc2ccc(OCC(=O)O)cc2)NC(=O)CSC[C@@H](C(=O)N[C@@H](CN)C(=O)NCCCCCCCCCCC(=O)O)NC(=O)[C@H](CCCNC(N)=O)NC(=O)[C@H](C(C)C)NC(=O)[C@H](CC2CCCCC2)NC(=O)[C@H](CCN)NC(=O)[C@@H](CC(C)C)NC(=O)[C@H](C)N(C)C(=O)[C@H](C(C)C)NC(=O)[C@H](Cc2ccc(-c3ccccc3)cc2)NC1=O [Example 1098] ({CH2CO}-Y(Carboxymethyl)[Phe(4-COOH)]DWL[Bip]V[NMeA][dL][Dab][Cha]V[Cit]C[Dap][Aun]-OH; thioether N-14) | 8.07 |
| Cc1cccc(C[C@@H]2NC(=O)[C@H](CC(=O)O)NC(=O)[C@H](Cc3ccc(C(=O)O)cc3)NC(=O)[C@H](CCN)NC(=O)CSC[C@@H](C(=O)N[C@@H](CCN)C(=O)NCCCCCCCCCCC(=O)O)NC(=O)[C@H](CO)NC(=O)[C@H](C(C)(C)O)NC(=O)[C@H](CC3CCCCC3)NC(=O)[C@H](CCN)NC(=O)[C@@H](CC(C)C)NC(=O)[C@H](C)N(C)C(=O)[C@H](Cc3ccc(OCC(=O)O)cc3)NC(=O)[C@H](Cc3ccc(-c4ccccc4)cc3)NC(=O)[C@H](Cc3ccccc3F)NC2=O)c1 [Example 1289] ({CH2CO}-[Dab][Phe(4-COOH)]D[Phe(3-Me)][Phe(2-F)][Bip]Y(Carboxymethyl)[NMeA][dL][Dab][Cha][Val(3-OH)]SC[Dab][Aun]-OH; thioether N-14) | 7.49 |
| Cc1cccc(C[C@@H]2NC(=O)[C@H](CC(=O)O)NC(=O)[C@H](Cc3ccc(C(=O)O)cc3)NC(=O)[C@H](Cc3ccc(OCC(=O)O)cc3)NC(=O)CSC[C@@H](C(=O)NCCOCCOCC(=O)NCCCCCCCCCCC(=O)O)NC(=O)[C@H](CCC(=O)O)NC(=O)[C@H](C(C)C)NC(=O)[C@H](CC3CCCCC3)NC(=O)[C@H](CCN)NC(=O)[C@@H](CC(C)C)NC(=O)[C@H](C)N(C)C(=O)[C@H](C(C)C)NC(=O)[C@H](Cc3ccc(-c4ccccc4)cc3)NC(=O)[C@H](CC(C)C)NC2=O)c1 [Example 2296] ({CH2CO}-Y(Carboxymethyl)[Phe(4-COOH)]D[Phe(3-Me)]L[Bip]V[NMeA][dL][Dab][Cha]VEC[AEEA][Aun]-OH; thioether N-14) | 7.46 |
| CC(=O)NCCCC[C@@H]1NC(=O)[C@H](Cc2ccc(-c3ccccc3)cc2)NC(=O)[C@H](C(C)C)NC(=O)[C@H](Cc2c[nH]c3ccccc23)NC(=O)[C@H](CC(=O)O)NC(=O)[C@H](Cc2ccc(OCC(=O)O)cc2)NC(=O)[C@H](Cc2ccc(OCC(=O)O)cc2)NC(=O)CSC[C@@H](C(=O)NCCOCCOCC(=O)NCCCCCCCCCCC(=O)O)NC(=O)[C@H](CCO)NC(=O)[C@H](C(C)C)NC(=O)[C@H](CC2CCCCC2)NC(=O)[C@H](CCN)NC(=O)[C@@H](CC(C)C)NC(=O)[C@H](C)N(C)C1=O [Example 2316] ({CH2CO}-Y(Carboxymethyl)Y(Carboxymethyl)DWV[Bip]K(Ac)[NMeA][dL][Dab][Cha]V[hSer]C[AEEA][Aun]-OH; thioether N-14) | 7.95 |

Same assay, conditions: PE-labeled PD-L1-Ig 20 nM final, Jurkat-hPD-1 cells; read-out: Jurkat HPD1 PDL1 IC50

| SMILES | pIC50 |
| --- | --- |
| CC(C)C[C@H]1NC(=O)[C@H](C)N(C)C(=O)[C@H](Cc2ccc(C(=O)O)cc2)NC(=O)[C@H](Cc2ccc(-c3ccccc3)cc2)NC(=O)[C@H](Cc2ccc(C(=O)O)cc2)NC(=O)[C@H](Cc2cccc(C(F)(F)F)c2)NC(=O)[C@H](CC(=O)O)NC(=O)[C@H](Cc2ccc(C(=O)O)cc2)NC(=O)[C@H](C(C)O)NC(=O)CSC[C@@H](C(=O)N[C@@H](CCN)C(=O)NCCCCCCCCCCC(=O)O)NC(=O)[C@H](CCC(=O)O)NC(=O)[C@H](C(C)C)NC(=O)[C@H](CC2CCCCC2)NC(=O)[C@H](CCN)NC1=O (stereo partly drawn) [Example 2572] ({CH2CO}-[Thr(3ξ)][Phe(4-COOH)]D[Phe(3-CF3)][Phe(4-COOH)][Bip][Phe(4-COOH)][NMeA][dL][Dab][Cha]VEC[Dab][Aun]-OH; thioether N-14) | 7.94 |
